The record followed here is ChEMBL document CHEMBL1201862, “PubChem BioAssay data set” (2004).

Among the test systems are ACHN; COLO 205; DU-145; HCC 2998; HCT-15; HT-29; Malme-3M; NCI-H23; NCI-H522; OVCAR-3; RPMI-8226; SF-268; SK-MEL-28; SK-MEL-2; SK-OV-3; T47D; TK-10; UACC-62; SF-539; HOP-92.
Holding throughout (experiment): NCI-60 cell line screen, 48 h

The structures appear in SMILES notation. Where “and” joins values, the source holds several entries; their conditions need not be identical. Equal entries are not always repeated.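 Tested at 5 concentrations; 48 h exposure; 96-well plates; endpoints linearly interpolated, else capped at highest concentration. At the GI50, growth is halved.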 Calls of active or inactive are those of the source. Cut-off read from the data, not from the text of the source: active = GI50 up to about 1.1 µM and inactive = higher. A value given as a limit tells only on which side of the number the result lay.

For the molecule `Nc1nc(SCc2ccccn2)c2ncn(C3CCCC3)c2n1`, the GI50 with ACHN was > 100 µM (inactive); with COLO 205, > 100 µM (inactive); with DU-145, > 100 µM (inactive); in the experiment with HCC 2998, > 100 µM (inactive); with HCT-15 it was > 100 µM; with HT-29 it was > 100 µM (inactive). In addition, the GI50 was 82 µM (inactive) in the experiment on Malme-3M; > 100 µM (inactive) with NCI-H23; 59.7 µM (inactive) with NCI-H522; > 100 µM (inactive) in the experiment on OVCAR-3; > 100 µM (inactive) in the experiment with RPMI-8226; 70.5 µM (inactive) with SF-268. Further, the GI50 in the experiment with SK-MEL-28 was > 100 µM (inactive); with SK-MEL-2, > 100 µM (inactive); in the experiment with SK-OV-3, > 100 µM (inactive); in the experiment with T47D, 76 µM (inactive); in the experiment on TK-10 it was > 100 µM (inactive); with UACC-62, > 100 µM (inactive).

Consider `COc1ccc(C2=CC(c3ccc4c(c3)OCO4)c3c(c4ccccc4oc3=O)O2)cc1OC` (configuration not stated), for which the GI50 in the experiment with ACHN is 1.5 µM (inactive); with COLO 205, 1.51 µM (inactive); with DU-145 it was 2.25 µM (inactive); with HCC 2998, 1.46 µM (inactive); in the experiment on HCT-15, 0.546 µM; in the experiment with HT-29 it was 0.536 µM (active). The GI50 in the experiment with Malme-3M is > 81.8 µM (inactive); with NCI-H23, 2.51 µM (inactive); in the experiment with NCI-H522 it was 0.486 µM (active); with RPMI-8226 it was 2.64 µM (inactive); with SF-268 it was 5.07 µM (inactive); in the experiment on SF-539 it was 0.69 µM (active). In addition, the GI50 with SK-MEL-28 is > 55.2 µM (inactive); in the experiment with SK-OV-3, 0.859 µM (active); in the experiment on T47D it was 0.685 µM (active); in the experiment on TK-10, 2.75 µM (inactive); with UACC-62, 0.424 µM (active).

Consider `CC(C)=NN/C(=N\c1ccc(Cl)cc1)NS(=O)(=O)c1ccc(C)cc1`, for which the GI50 with ACHN was 40.5 µM (inactive); in the experiment with COLO 205, > 100 µM (inactive); in the experiment with DU-145, 47.9 µM (inactive); in the experiment on HCT-15, > 100 µM; with HOP-92, 38.8 µM (inactive); in the experiment with HT-29, > 100 µM (inactive). For the same molecule, the GI50 in the experiment with Malme-3M is 61.2 µM (inactive); in the experiment on NCI-H23, > 100 µM (inactive); with NCI-H522, 56.8 µM (inactive); with OVCAR-3 it was 31.1 µM (inactive); with RPMI-8226 it was 44.2 µM (inactive); with SF-268 it was 60 µM (inactive). For the same molecule, the GI50 was 85.5 µM (inactive) in the experiment with SK-MEL-28; 73.1 µM (inactive) with SK-MEL-2; 23.8 µM (inactive) in the experiment on T47D; 50.8 µM (inactive) in the experiment with TK-10; 49 µM (inactive) in the experiment on UACC-62.

For `Nc1nncc2[nH]nnc12`, the GI50 in the experiment on ACHN was > 100 µM (inactive); in the experiment on COLO 205, > 100 µM (inactive); in the experiment on DU-145, > 100 µM (inactive); with HCT-15, > 100 µM; with HT-29, > 100 µM (inactive); in the experiment with NCI-H23, > 100 µM (inactive). Also, the GI50 with OVCAR-3, in the experiment with RPMI-8226, with SF-268, with SF-539, in the experiment with SK-MEL-28 and in the experiment with SK-MEL-2 was > 100 µM (inactive) in each case. Moreover, the GI50 in the experiment on T47D, in the experiment on TK-10 and with UACC-62 was > 100 µM (inactive) each time.

For the molecule `Cc1nc2ccc(Cl)cc2c2c1CCS2`, the GI50 in the experiment on ACHN is 45.1 µM (inactive); in the experiment on COLO 205, 48.9 µM (inactive); in the experiment with DU-145, 91.2 µM (inactive); in the experiment on HCC 2998 it was 77.4 µM (inactive); with HCT-15, > 100 µM; with HT-29, 41.8 µM (inactive). Also, the GI50 was 90.2 µM (inactive) in the experiment with Malme-3M; 75 µM (inactive) in the experiment with NCI-H23; > 100 µM (inactive) in the experiment with NCI-H522; 47.8 µM (inactive) in the experiment on OVCAR-3; 16.3 µM (inactive) in the experiment on RPMI-8226; 56.5 µM (inactive) in the experiment on SF-268. In addition, the GI50 in the experiment with SF-539 was 87.5 µM (inactive); with SK-MEL-28 it was > 100 µM (inactive); in the experiment on SK-MEL-2 it was 57.9 µM (inactive); with SK-OV-3, > 100 µM (inactive); in the experiment on T47D, > 100 µM (inactive); in the experiment on TK-10 it was 69.2 µM (inactive). In the experiment with UACC-62, the GI50 was 99.8 µM (inactive).

Take `COC(=O)C1=C(C(=O)OC)SC(=C2SC3=C(SC(=C4SCCS4)S3)S2)S1`: the GI50 in the experiment on ACHN, in the experiment with COLO 205, in the experiment with DU-145, in the experiment on HOP-92, with HT-29 and in the experiment on Malme-3M was > 100 µM (inactive) each time. For the same molecule, the GI50 in the experiment with NCI-H23, with NCI-H522, with RPMI-8226, in the experiment with SF-268, with SK-MEL-28 and in the experiment on SK-MEL-2 was > 100 µM (inactive) throughout. In addition, the GI50 with SK-OV-3, with T47D, with TK-10 and in the experiment on UACC-62 was > 100 µM (inactive) each time.

For `CCN(CC)CCN1CCN=C2c3cc(OC)ccc3Nc3c([N+](=O)[O-])ccc1c32`, the GI50 is 1 µM (active) with COLO 205; 2.8 µM (inactive) with DU-145; 0.555 µM (active) in the experiment with HCC 2998; 0.845 µM in the experiment on HCT-15; 2.21 µM (inactive) in the experiment with HOP-92; 0.881 µM (active) in the experiment on HT-29. The GI50 was 1.54 µM (inactive) in the experiment with Malme-3M; 1.1 µM (active) in the experiment with NCI-H23; 0.64 µM (active) in the experiment with RPMI-8226; 0.501 µM (active) in the experiment with SF-268; 1 µM (active) with SK-MEL-28; 2.52 µM (inactive) with SK-OV-3. Moreover, the GI50 with T47D is 5.65 µM (inactive); in the experiment with TK-10, 2.8 µM (inactive); in the experiment with UACC-62, 1 µM (active).

As for `CCOC1CCN(C(=O)c2ccccc2)O1` (configuration not stated), the GI50 was > 10 µM (inactive) in the experiment on ACHN; > 10 µM (inactive) in the experiment with COLO 205; > 10 µM (inactive) with DU-145; > 10 µM (inactive) in the experiment on HCC 2998; > 10 µM in the experiment on HCT-15; > 10 µM (inactive) in the experiment on HT-29. Besides, the GI50 in the experiment with Malme-3M, in the experiment on NCI-H23, in the experiment with NCI-H522, in the experiment on OVCAR-3, in the experiment with RPMI-8226 and in the experiment on SF-268 was > 10 µM (inactive) throughout. For the same molecule, the GI50 in the experiment on SF-539, with SK-MEL-28, in the experiment on SK-MEL-2, in the experiment on SK-OV-3, with T47D and with TK-10 was > 10 µM (inactive) each time.

Turning to `CC(=O)c1c(O)ccc2c1c1c(n2C)C(=O)c2ccccc2C1=O`, the GI50 is > 100 µM (inactive) with COLO 205; 3.21 µM (inactive) with DU-145; 0.0114 µM (active) in the experiment with HCC 2998; > 100 µM in the experiment on HCT-15; > 100 µM (inactive) with HT-29; 0.0128 µM (active) in the experiment on Malme-3M. Also, the GI50 in the experiment on OVCAR-3 was 1.81 µM (inactive); in the experiment on RPMI-8226, 1.46 µM (inactive); in the experiment with SF-268, 1.86 µM (inactive); in the experiment with SF-539, 3.08 µM (inactive); in the experiment on SK-MEL-28 it was 2.99 µM (inactive); in the experiment on SK-MEL-2 it was > 100 µM (inactive). Moreover, the GI50 was 2.84 µM (inactive) in the experiment on SK-OV-3, 1.45 µM (inactive) in the experiment on T47D and 3.47 µM (inactive) in the experiment on TK-10.

Turning to `CCCc1cc2c(cc1O)CC[C@@H]1[C@@H]2CC[C@]2(C)[C@@H](O)CC[C@@H]12`, the GI50 with ACHN is 12.9 µM (inactive); in the experiment with COLO 205, 18.2 µM (inactive); in the experiment with HCC 2998, 16.5 µM (inactive); in the experiment with HCT-15, 4.98 µM; with HOP-92, 19.1 µM (inactive); with HT-29 it was 16.3 µM (inactive). Also, the GI50 in the experiment on Malme-3M was 13 µM (inactive); in the experiment on NCI-H23, 14.1 µM (inactive); with NCI-H522, 8.32 µM (inactive); in the experiment on OVCAR-3, 11.8 µM (inactive); with SF-268, 13.2 µM (inactive); in the experiment on SF-539 it was 10.8 µM (inactive). For the same molecule, the GI50 with SK-MEL-28 is 13.1 µM (inactive); in the experiment with SK-MEL-2, 15.1 µM (inactive); in the experiment on SK-OV-3 it was 14.6 µM (inactive); in the experiment with T47D, 10.6 µM (inactive); with TK-10, 16.2 µM (inactive).

As for `O[C@H]1[C@H](O)[C@@H](O)[C@H](O)[C@@H](O)[C@H]1O` [INOSITOL], the GI50 is > 1000 µM (inactive) in the experiment on ACHN; > 1000 µM (inactive) in the experiment with COLO 205; > 1000 µM (inactive) in the experiment on DU-145; > 1000 µM (inactive) in the experiment on HCC 2998; > 1000 µM in the experiment on HCT-15; > 1000 µM (inactive) in the experiment on HOP-92. Besides, the GI50 with HT-29, in the experiment on Malme-3M, in the experiment on NCI-H23, with OVCAR-3, in the experiment with RPMI-8226 and in the experiment with SF-268 was > 1000 µM (inactive) throughout. Moreover, the GI50 with SF-539, in the experiment on SK-MEL-28, in the experiment on SK-MEL-2, with SK-OV-3, in the experiment with T47D and in the experiment with TK-10 was > 1000 µM (inactive) each time. For the same molecule, the GI50 in the experiment with UACC-62 was > 1000 µM (inactive).

For the molecule `COc1cc(-c2oc3c(OC)c(OC)cc(O)c3c(=O)c2OC)ccc1O` [TERNATIN], the GI50 with COLO 205 is > 100 µM (inactive); in the experiment with DU-145, 7.43 µM (inactive); in the experiment with HCT-15 it was 4.54 µM and 6.24 µM; in the experiment on HT-29, > 100 µM (inactive); with Malme-3M, 13.1 µM (inactive) and 9.59 µM (inactive); with OVCAR-3 it was 11.7 µM (inactive). The GI50 in the experiment with SF-539 was 6.18 µM (inactive) and 7.5 µM (inactive); with SK-OV-3, 1.17 µM (inactive) and 2.19 µM (inactive); with T47D it was 8.32 µM (inactive); with TK-10, 4.84 µM (inactive) and 8.69 µM (inactive); with UACC-62, 8.39 µM (inactive) and 4.7 µM (inactive).
